Structures are written as SMILES. ≈ marks a conversion by molar mass, not a printed value.

What all share (format): functional
Assay [1] relates to Bacillus subtilis. Put plainly: Antimicrobial activity against Bacillus subtilis harboring fmt with base pair insertion at position 745 after 17 hrs by microtiter broth dilution method. Background: In broth dilution the organism is exposed to a series of concentrations in liquid medium.
Assay [2] concerns Bacillus subtilis. Put plainly: Antimicrobial activity against Bacillus subtilis harboring fmt P113L mutant after 17 hrs by microtiter broth dilution method.
In assay [3] the test system is Bacillus subtilis. The assay can be described thus: Antimicrobial activity against Bacillus subtilis harboring fmt AGA to TGA and R3stop mutation after 17 hrs by microtiter broth dilution method.
Assay [4] concerns Bacillus subtilis. The assay can be described thus: Antimicrobial activity against Bacillus subtilis harboring fmt H108R mutant after 17 hrs by microtiter broth dilution method.
In assay [5] the test system is Bacillus subtilis. Put plainly: Antimicrobial activity against Bacillus subtilis harboring fmt G118D mutant after 17 hrs by microtiter broth dilution method.
Assay [6] concerns Bacillus subtilis. Put plainly: Antimicrobial activity against Bacillus subtilis harboring folD T184M mutant after 17 hrs by microtiter broth dilution method.
Assay [7] deals with Bacillus subtilis. Put plainly: Antimicrobial activity against Bacillus subtilis harboring fmt S110P mutant after 17 hrs by microtiter broth dilution method.
For assay [8], the system named is Bacillus subtilis. Put plainly: Antimicrobial activity against Bacillus subtilis harboring fmt with deletion mutation at base pair 745 after 17 hrs by microtiter broth dilution method.
For assay [9], the system named is Bacillus subtilis. The assay can be described thus: Antimicrobial activity against Bacillus subtilis harboring folD E17Q mutant after 17 hrs by microtiter broth dilution method.
Assay [10] has as its system Bacillus subtilis. The assay can be described thus: Antimicrobial activity against Bacillus subtilis harboring folD with deletion mutation of base pair 507 to 518 after 17 hrs by microtiter broth dilution method.
For assay [11], the system named is Bacillus subtilis. The assay can be described thus: Antimicrobial activity against Bacillus subtilis harboring folD S71Q, S72Q and L73P mutant after 17 hrs by microtiter broth dilution method.
The subject of assay [12] is Bacillus subtilis. Put plainly: Antimicrobial activity against Bacillus subtilis harboring fmt R116C mutant after 17 hrs by microtiter broth dilution method.
The test system of assay [13] is Bacillus subtilis. Put plainly: Antimicrobial activity against Bacillus subtilis harboring fmt with 295 to 639 base pair deletion mutation after 17 hrs by microtiter broth dilution method.
In assay [14] the test system is Bacillus subtilis. Put plainly: Antimicrobial activity against Bacillus subtilis harboring fmt P120L mutant after 17 hrs by microtiter broth dilution method.
Assay [15] relates to Bacillus subtilis. The assay can be described thus: Antimicrobial activity against Bacillus subtilis harboring fmt with deletion mutation at base pair 119 after 17 hrs by microtiter broth dilution method.
For assay [16], the system named is Bacillus subtilis. Put plainly: Antimicrobial activity against Bacillus subtilis harboring glyA with deletion mutation of base pair 661 to 663 after 17 hrs by microtiter broth dilution method.
Assay [17] has as its system Bacillus subtilis. The assay can be described thus: Antimicrobial activity against Bacillus subtilis harboring fmt R116P mutant after 17 hrs by microtiter broth dilution method.

As usually defined, the MIC is the least concentration at which growth counts as inhibited. For `CCCCC[C@H](CC(=O)NO)C(=O)N[C@H](C(=O)N1CCC[C@H]1CO)C(C)C` [ACTINONIN], the MIC against Bacillus subtilis [1] is 96 µg/mL (≈ 249 µM); against Bacillus subtilis [2] it was 96 µg/mL (≈ 249 µM); against Bacillus subtilis [3], 192 µg/mL (≈ 498 µM); in the assay with Bacillus subtilis [4] it was more than 512 µg/mL; with Bacillus subtilis [5], more than 512 µg/mL; in the assay with Bacillus subtilis [6], 192 µg/mL (≈ 498 µM). In addition, the MIC in the assay with Bacillus subtilis [7] was more than 512 µg/mL; with Bacillus subtilis [8], 96 µg/mL (≈ 249 µM); against Bacillus subtilis [9] it was 192 µg/mL (≈ 498 µM); against Bacillus subtilis [10], more than 512 µg/mL; in the assay with Bacillus subtilis [11], more than 512 µg/mL; with Bacillus subtilis [12], 48 µg/mL (≈ 125 µM). The MIC against Bacillus subtilis [13] is more than 512 µg/mL; against Bacillus subtilis [14], more than 512 µg/mL; against Bacillus subtilis [15], 192 µg/mL (≈ 498 µM); against Bacillus subtilis [16], more than 512 µg/mL; in the assay with Bacillus subtilis [17] it was more than 512 µg/mL.
